Measurements reported in patent US6855730B2, “3-methylidenyl-2-indolinone modulators of protein kinase” (Sugen, Inc., priority 1998, dated 2005).

What was measured:
[1] = system: SKOV3 cells; assay: SKOV3 growth assay (2% FBS); type: cell-based; details: Homo sapiens, SK-OV-3, read-out: SKOV3 growth (2% FBS) IC50
[2] = biological target: T1, 3T3 cell line genetically engineered to express human EGF-R (Homo sapiens, UniProt P00533); assay: EGF-induced BrdU incorporation assay; type: cell-based; details: read-out: BrdU EGF driven IC50
T1 construct: expressed in transfected cells; host or cells: 3T3
Protocol: The cellular/catalytic assays described herein are performed in an ELISA format. The general procedure is as follows: a compound is introduced to cells expressing the test kinase, either naturally or recombinantly, for a selected period of time after which, if the test kinase is a receptor, a ligand known to activate the receptor is added. The cells are lysed and the lysate is transferred to the wells of an ELISA plate previously coated with a specific antibody recognizing the substrate of the enzymatic phosphorylation reaction. Non-substrate components of the cell lysate are washed away and the amount of phosphorylation on the substrate is detected with an antibody specifically recognizing phosphotyrosine compared with control cells that were not contacted with a test compound. The cellular/biologic assays described herein measure the amount of DNA made in response to activation of a test kinase, which is a general measure of a proliferative response. The general procedure for this assay is as follows: a compound is introduced to cells expressing the test kinase, either naturally or recombinantly, for a selected period of time after which, if the test kinase is a receptor, a ligand known to activate the receptor is added. After incubation at least overnight, a DNA labeling reagent such as Bromodeoxyuridine (BrdU) or 3H-thymidine is added. The amount of labeled DNA is detected with either an anti-BrdU antibody or by measuring radioactivity and is compared to control cells not contacted with a test compound. […]
Protocol • (1) Cells are seeded at 8000 cells/well in 10% CS, 2mM Gin in DMEM, in a 96 well plate. Cells are incubated overnight at 37° C. in 5% CO2. • (2) After 24 hours, the cells are washed with PBS, and then are serum starved in serum free medium (0% CS DMEM with 0.1% BSA) for 24 hours. • (3) On day 3, ligand (EGF, 2 nM, prepared in DMEM with 0.1% BSA) and test compounds are added to the cells simultaneously. The negative control wells receive serum free DMEM with 0.1% BSA only, the positive control cells receive the ligand (EGF) but no test compound. Test compounds are prepared in serum free DMEM with ligand in a 96 well plate, and serially diluted for 7 test concentrations. • (4) After 20 hours of ligand activation, diluted BrdU labeling reagent (1:100 in DMEM, 0.1% BSA) is added and the cells are incubated with BrdU (final concentration=10 μM) for 1.5 hours. • (5) After incubation with labeling reagent, the medium is removed by decanting and tapping the inverted plate on a paper towel. FixDenat solution is added (50 μl/well) and the plates are incubated at room temperature for 45 minutes on a plate shaker. • (6) The FixDenat solution is thoroughly removed by decanting and tapping the inverted plate on a paper towel. Milk is added (5% dehydrated milk in PBS, 200 μl/well) as a blocking solution and the plate is incubated for 30 minutes at room temperature on a plate shaker. • (7) The blocking solution is removed by decanting and the wells are washed once with PBS. Anti-BrdU-POD solution (1:100 dilution in PBS, 1% BSA) is added (100 μ/well) and the plate is incubated for 90 minutes at room temperature on a plate shaker. • (8) The antibody conjugate is thoroughly removed by decanting and rinsing the wells 5 times with PBS, and the plate is dried by inverting and tapping on a paper towel. • (9) TMB substrate solution is added (100 μl/well) and incubated for 20 minutes at room temperature on a plate shaker until color development is sufficient for photometric detection. • (10) The absorbance of the samples are measured at 410 nm (in “dual wavelength” mode with a filter reading at 490 nm, as a reference wavelength) on a Dynatech ELISA plate reader.

Compound	IC50 [1] [µM]	IC50 [2] [µM]
COc1cc(C)c(C=C2C(=O)Nc3ccccc32)cc1C(C)C [Example 8, 3-(5-Isopropyl-4-methoxy-2-methylbenzylidene)-1,3-dihydroindol-2-one]	0.96	> 50
COc1cc(C)c(/C=C2/C(=O)Nc3ccc(Br)cc32)cc1C(C)C [Example 36, 5-Bromo-3-(5-isopropyl-4-methoxy-2-methyl-benzylidene)-1,3-dihydroindol-2-one]	> 25	31
COc1cc(C)c(/C=C2/C(=O)Nc3ncccc32)cc1C(C)C [Example 45, 3-(5-Isopropyl-4-methoxy-2-methylbenzylidene)-1,3-dihydro-pyrrolo[2,3-b]pyridin-2-one]		> 50
CC(=O)Nc1ccc2c(c1)NC(=O)/C2=C/c1ccc(OCCN2CCOCC2)c(-c2ccsc2)c1 [Example 50, N-{3-[4-(2-Morpholin-4-ylethoxy)-3-thiophen-3-ylbenzylidene]-2-oxo-2,3-dihydro-1H-indol-6-yl}-acetamide]		37.9
COc1ccc(/C=C2/C(=O)Nc3ccc(Cl)cc32)cc1-c1cccs1 [Example 59, 5-chloro-3-(4-Methoxy-3-thiophen-2-ylbenzylidene)-1,3-dihydroindol-2-one]	17.2	44.5
COc1ccc(/C=C2/C(=O)Nc3ccccc32)cc1C(C)C [Example 7, 3-(3-Isopropyl-4-methoxybenzylidene)-1,3-dihydroindol-2-one]	2.5	24.5
COc1cc(C)c(C=C2C(=O)Nc3cc(NC(C)=O)ccc32)cc1C(C)C [Example 27, N-[3-(5-Isopropyl-4-methoxy-2-methyl-benzylidene)-2-oxo-2,3-dihydro-1H-indol-6-yl]-acetamide]	5.1	26.8
COc1ccc(/C=C2/C(=O)Nc3cc(NC(C)=O)ccc32)cc1-c1cccs1 [Example 31, N-[3-(4-Methoxy-3-thiophen-2-ylbenzylidene)-2-oxo-2,3-dihydro-1H-indol-6-yl]-acetamide]	0.4	38.6
COc1ccc(/C=C2/C(=O)Nc3cc(NC(C)=O)ccc32)cc1-c1ccsc1 [Example 18, N-[3-(4-Methoxy-3-thiophene-3-ylbenzylidene)-2-oxo-2,3-dihydro-1H-indol-6-yl]-acetamide]	1	> 50
COc1ccc(C=C2C(=O)Nc3cc(NC(C)=O)ccc32)cc1-c1cccc(NC(C)=O)c1 (mixture of isomers) [Example 63, N-[3-(3′-Acetylamino-6-methoxybiphenyl-3-ylmethylene)-2-oxo-2,3-dihydro-1H-indol-6-yl]-acetamide]	> 25	30.5
COc1c(C(C)C)cc(/C=C2/C(=O)Nc3ccc(N)cc32)cc1C(C)C [Example 20, 5-Amino-3-(3,5-diisopropyl-4-methoxy-benzylidene)-1,3-dihydroindol-2-one]	35.5	30
COc1ccc(/C=C2/C(=O)Nc3ccc(Br)cc32)cc1-c1ccccc1 [Example 13, 5-Bromo-3-(6-methoxybiphenyl-3-ylmethylene)-1,3-dihydroindol-2-one]	21.3	26.6
COc1ccc(/C=C2/C(=O)Nc3ncccc32)cc1C1CCCC1 [Example 47, 3-(3-Cyclopentyl-4-methoxybenzylidene)-1,3-dihydropyrrolo[2,3-b]pyridin-2-one]	46.9	> 50
COc1cc(C)c(C=C2C(=O)Nc3ccc(Cl)cc32)cc1C(C)C [Example 9, 5-Chloro-3-(5-isopropyl-4-methoxy-2-methylbenzylidene)-1,3-dihydroindol-2-one]	14.5	11
CCOc1cccc(-c2cc(C=C3C(=O)Nc4ccccc43)ccc2OC)c1 [Example 46, 3-(3′-Ethoxy-6-methoxybiphenyl-3-ylmethylene)-1,3-dihydroindol-2-one]	7.7	45.7
COc1ccc(/C=C2/C(=O)Nc3ccc(Cl)cc32)cc1-c1cccnc1 [Example 60]	4.8	> 50
CC(=O)Nc1ccc2c(c1)NC(=O)/C2=C\c1ccc2c(c1)CCC(C)(C)O2 [Example 33, N-[3-(2,2-Dimethylchroman-6-ylmethylene)-2-oxo-2,3-dihydro-1H-indol-6-yl]-acetamide]	10.3	

Next, values leading:

IC50 [1] [µM]	IC50 [2] [µM]	Compound
17.8	32.9	CC1(C)CCc2cc(/C=C3/C(=O)Nc4ccc(F)cc43)ccc2O1 [Example 23, 3-(2,2-Dimethylchroman-6-ylmethylene)-5-fluoro-1,3-dihydroindol-2-one]
7	7.8	CC1(C)CCc2cc(/C=C3/C(=O)Nc4ccc(Cl)cc43)ccc2O1 [Example 15, 5-Chloro-3-(2,2-dimethyl-chroman-6-ylmethylene)-1,3-dihydroindol-2-one]
16	30.3	COc1cc(C)c(/C=C2/C(=O)Nc3ccc(F)cc32)cc1C(C)C [Example 30, 5-Fluoro-3-(5-isopropyl-4-methoxy-2-methyl-benzylidene)-1,3-dihydroindol-2-one]
11.2	29	COc1ccc(/C=C2/C(=O)Nc3ccccc32)cc1C1CCCC1 [Example 10, 3-(3-Cyclopentyl-4-methoxybenzylidene)-1,3-dihydroindol-2-one]
20.6	24.1	COc1cc(C=C2C(=O)Nc3ccccc32)c(-c2ccccc2OC)cc1OC [Example 49, 3-(4,5,2′-Trimethoxybiphenyl-2-ylmethylene)-1,3-dihydroindol-2-one]
5.9	6.4	CC(=O)Nc1ccc2c(c1)NC(=O)/C2=C/c1ccc(OCCN2CCOCC2)c(C2CCCCC2)c1 [Example 16, N-{3-[3-Cyclohexyl-4-(2-morpholin-4-ylethoxy)-benzylidene]-2-oxo-2,3-dihydro-1H-indol-6-yl}-acetamide]
5.4	7.2	COc1c(C(C)C)cc(/C=C2/C(=O)Nc3ccc(C(C)=O)cc32)cc1C(C)C [Example 5, 5-Acetyl-3-(3,5-diisopropyl-4-methoxybenzylidene)-1,3dihydroindol-2-one]
5.9	9.3	COc1c(C(C)C)cc(/C=C2/C(=O)Nc3ccc(C)cc32)cc1C(C)C [Example 19, 3-(3,5-Diisopropyl-4-methoxybenzylidene)-5-methyl-1,3-dihydroindol-2-one]
16.2	28.1	COc1ccc(/C=C2/C(=O)Nc3ccccc32)cc1-c1ccsc1 [Example 35, 3-(4-Methoxy-3-thiophen-3-ylbenzylidene)-1,3-dihydroindol-2-one]
> 25	> 50	COc1cccc(-c2cc(OC)c(OC)cc2/C=C2/C(=O)Nc3ccc(Cl)cc32)c1 [Example 61, 5-Chloro-3-(4,5-3′-Trimethoxybiphenyl-2-ylmethylene)-1,3-dihydroindol-2-one]
> 20		COc1c(C)cc(/C=C2/C(=O)Nc3ncccc32)cc1C [Example 56, 3-(4-Methoxy-3,5-dimethylbenzylidene)-1,3-dihydropyrrolo[2,3-b]pyridin-2-one]
7	26.6	COc1c(C(C)C)cc(/C=C2/C(=O)Nc3cc(O)ccc32)cc1C(C)C [Example 4, 3-(3,5-Diisopropyl-4-methoxybenzylidene)-6-hydroxy-1,3-dihydroindol-2-one]
14.5		COc1ccc(/C=C2/C(=O)Nc3ccc(Cl)cc32)cc1C1CCCCC1 [Example 51, 5-Chloro-3-(3-cyclohexyl-4-methoxybenzylidene)-1,3-dihydroindol-2-one]
